From ChEMBL document CHEMBL5331070, “Design, synthesis and evaluation of N3-substituted quinazolinone derivatives as potential Bloom's Syndrome protein (BLM) helicase inhibitor for sensitization treatment of colorectal cancer” (Eur J Med Chem, 2023)
The source made the active and inactive calls. The calls are words filed in the database; no cut-off is given here.

What was measured:
[1] = target: T1, RecQ-like DNA helicase BLM (Homo sapiens, UniProt P54132); assay: Inhibition of His-tagged BLM (unknown origin) expressed in Escherichia coli BL21 (DE3) using 5'-biotin-labeled duplex forked-DNA as substrate incubated for 10 mins followed by substrate addition measured after 30 mins in presence of ATP by electrophoretic mobility shift assay
[2] = target: T1, RecQ-like DNA helicase BLM; assay: Displacement of thiazole orange from His-tagged BLM (unknown origin) expressed in Escherichia coli BL21 (DE3) assessed as decrease in fluorescence intensity by fluorescence based analysis
[3] = target: T1, RecQ-like DNA helicase BLM; assay: Displacement of thiazole orange from His-tagged BLM (unknown origin) expressed in Escherichia coli BL21 (DE3) assessed as decrease in fluorescence intensity at 10 uM by fluorescence based analysis
SW480 [4] = assay: Induction of cell cycle arrest in human SW480 cells assessed as accumulation of cells at S phase at 4 uM measured after 48 hrs by propidium iodide staining based high-content screening method; type: functional
[5] = target: T1, RecQ-like DNA helicase BLM; assay: Inhibition of BLM in human HCT-116 cells co-transfected with DR-GFP and I-SceI plasmid assessed as decease in recruitment of BLM to DSB site at 1 to 2 uM incubated for 48 hrs by qPCR analysis; type: cell-based; conditions: dose 1-2 µM
SW480 [6] = assay: Inhibition of colony formation in human SW480 cells incubated for 10 days by crystal violet staining based assay; type: functional, cell-based; conditions: SW480, 240 h
RKO [7] = assay: Cytotoxicity against human RKO cells assessed as inhibition of cell growth measured after 48 hrs by MTT assay; type: functional, cell-based
RKO [8] = assay: Induction of cell cycle arrest in human RKO cells assessed as accumulation of cells at G2/M phase at 4 uM measured after 48 hrs by propidium iodide staining based high-content screening method; type: functional
SW480 [9] = assay: Induction of apoptosis in human SW480 cells assessed as apoptotic cells at 1 uM measured after 48 hrs by Annexin V-FITC/PI staining based flow cytometry (reference value: 16%); type: functional
HCT-116 [10] = assay: Induction of apoptosis in human HCT-116 cells assessed as apoptotic cells at 1 uM measured after 48 hrs by Annexin V-FITC/PI staining based flow cytometry (reference value: 14%); type: functional
HCT-116 [11] = assay: Cytotoxicity against human HCT-116 cells assessed as inhibition of cell growth measured after 48 hrs by MTT assay; type: functional, cell-based; conditions: HCT-116, 48 h
SW480 [12] = assay: Induction of cell cycle arrest in human SW480 cells assessed as accumulation of cells at G2/M phase at 4 uM measured after 48 hrs by propidium iodide staining based high-content screening method; type: functional
RKO [13] = assay: Inhibition of colony formation in human RKO cells incubated for 10 days by crystal violet staining based assay; type: functional, cell-based; conditions: 240 h
SW480 [14] = assay: Induction of DNA damage in human SW480 cells assessed as increase in gamma-H2AX level at above 0.3 uM incubated for 48 hrs by Western blotting analysis; type: functional, cell-based
[15] = Disruption of BLM/5'-biotin-labeled duplex forked-DNA interaction incubated for 30 mins by ELISA assay
HCT-116 [16] = assay: Induction of cell cycle arrest in human HCT-116 cells assessed as accumulation of cells at G2/M phase at 4 uM measured after 48 hrs by propidium iodide staining based high-content screening method; type: functional
HCT-116 [17] = assay: Induction of DNA damage in human HCT-116 cells assessed as increase in gamma-H2AX level at above 0.3 uM incubated for 48 hrs by Western blotting analysis; type: functional, cell-based
SW480 [18] = assay: Induction of DNA damage in human SW480 cells at 3 uM incubated for 48 hrs by DAPI staining based laser scanning confocal microscopic analysis; type: functional, cell-based
HCT-116 [19] = assay: Inhibition of cell invasion in human HCT-116 cells incubated for 48 hrs by crystal violet staining based transwell assay; type: functional; conditions: HCT-116, 48 h
SW480 [20] = assay: Cytotoxicity against human SW480 cells assessed as inhibition of cell growth measured after 48 hrs by MTT assay; type: functional, cell-based; conditions: SW480, 48 h
HCT-116 [21] = assay: Induction of DNA damage in human HCT-116 cells at 3 uM incubated for 48 hrs by DAPI staining based laser scanning confocal microscopic analysis; type: functional, cell-based
[22] = target: T1, RecQ-like DNA helicase BLM; assay: Inhibition of BLM (unknown origin) assessed as ATP hydrolysis using 5'-biotin-labeled duplex forked-DNA as substrate incubated for 10 mins in presence of ATP by luciferase assay
RKO [23] = assay: Induction of DNA damage in human RKO cells assessed as increase in gamma-H2AX level at above 0.3 uM incubated for 48 hrs by Western blotting analysis; type: functional, cell-based
HCT-116 [24] = assay: Antiproliferative activity against wild type human HCT-116 cells assessed as inhibition of cell growth incubated for 48 hrs by propidium iodide staining based high-content imaging analysis; type: functional; conditions: HCT-116, 48 h
HCT-116 [25] = assay: Induction of cell cycle arrest in human HCT-116 cells assessed as accumulation of cells at S phase at 4 uM measured after 48 hrs by propidium iodide staining based high-content screening method; type: functional
[26] = target: T1, RecQ-like DNA helicase BLM; assay: Inhibition of BLM in human HCT-116 cells co-transfected with I-SceI assessed as effect on HRR level by measuring GFP expression at 1 to 3 uM incubated for 48 hrs by propidium iodide staining based high-content imaging analysis; type: cell-based; conditions: dose 1-3 µM
RKO [27] = assay: Induction of DNA damage in human RKO cells at 3 uM incubated for 48 hrs by DAPI staining based laser scanning confocal microscopic analysis; type: functional, cell-based
HCT-116 [28] = assay: Inhibition of colony formation in human HCT-116 cells incubated for 10 days by crystal violet staining based assay; type: functional, cell-based; conditions: HCT-116, 240 h
[29] = Cytotoxicity against human NCM460 cells assessed as inhibition of cell growth measured after 48 hrs by MTT assay; type: toxicity, cell-based

T1 sequence (P54132 whole entry): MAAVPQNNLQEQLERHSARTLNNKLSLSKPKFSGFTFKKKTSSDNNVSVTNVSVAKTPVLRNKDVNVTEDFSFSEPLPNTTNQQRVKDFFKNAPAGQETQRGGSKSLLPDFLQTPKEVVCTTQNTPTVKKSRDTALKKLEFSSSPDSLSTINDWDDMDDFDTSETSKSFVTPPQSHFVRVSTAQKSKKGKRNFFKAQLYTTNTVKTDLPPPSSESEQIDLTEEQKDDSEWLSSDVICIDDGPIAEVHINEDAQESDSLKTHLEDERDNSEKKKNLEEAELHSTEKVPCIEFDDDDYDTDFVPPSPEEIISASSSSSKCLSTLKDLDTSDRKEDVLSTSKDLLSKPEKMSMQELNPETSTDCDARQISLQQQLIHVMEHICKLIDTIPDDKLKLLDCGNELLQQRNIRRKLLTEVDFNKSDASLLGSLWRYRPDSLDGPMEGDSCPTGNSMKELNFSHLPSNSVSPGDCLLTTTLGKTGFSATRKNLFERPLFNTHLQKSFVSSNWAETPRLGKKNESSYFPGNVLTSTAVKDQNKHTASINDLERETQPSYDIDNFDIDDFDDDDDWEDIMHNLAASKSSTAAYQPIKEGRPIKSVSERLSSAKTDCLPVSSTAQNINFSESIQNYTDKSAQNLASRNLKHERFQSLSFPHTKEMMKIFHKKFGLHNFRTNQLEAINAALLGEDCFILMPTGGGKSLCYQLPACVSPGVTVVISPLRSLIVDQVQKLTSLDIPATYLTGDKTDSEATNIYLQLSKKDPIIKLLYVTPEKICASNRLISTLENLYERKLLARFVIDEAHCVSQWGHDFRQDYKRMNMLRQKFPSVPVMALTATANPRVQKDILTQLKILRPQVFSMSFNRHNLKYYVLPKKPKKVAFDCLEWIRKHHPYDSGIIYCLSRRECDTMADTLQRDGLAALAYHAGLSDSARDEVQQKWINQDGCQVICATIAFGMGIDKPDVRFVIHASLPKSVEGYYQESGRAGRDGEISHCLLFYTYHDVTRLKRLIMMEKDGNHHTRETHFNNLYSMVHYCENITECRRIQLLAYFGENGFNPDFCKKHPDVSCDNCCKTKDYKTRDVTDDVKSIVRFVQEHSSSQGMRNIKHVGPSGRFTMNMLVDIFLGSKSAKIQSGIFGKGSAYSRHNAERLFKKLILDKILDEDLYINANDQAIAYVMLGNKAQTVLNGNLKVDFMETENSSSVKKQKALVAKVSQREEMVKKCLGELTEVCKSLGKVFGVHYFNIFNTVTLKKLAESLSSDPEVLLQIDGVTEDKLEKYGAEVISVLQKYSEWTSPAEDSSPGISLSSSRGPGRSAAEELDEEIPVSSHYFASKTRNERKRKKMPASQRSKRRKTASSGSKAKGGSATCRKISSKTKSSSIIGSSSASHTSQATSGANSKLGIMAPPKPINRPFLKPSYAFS

Structure (SMILES): CCCn1c(/C=C/c2ccc(C(C)C)cc2)nc2cc(NCCCN(CC)CC)c(F)cc2c1=O
- IC50 [1]: > 32 µM
- IC50 [2]: > 10 µM

Structure (SMILES): CCN(CC)CCCNc1cc2nc(/C=C/c3ccc(C(C)C)cc3)n(CCC(C)C)c(=O)c2cc1F
- IC50 [1]: 9.1 µM
- Activity [3]: inactive

Structure (SMILES): CCN(CC)CCCNc1cc2nc(/C=C/c3ccc(C(C)C)cc3)n(CCc3ccccc3)c(=O)c2cc1F
- IC50 [1]: 4 µM
- IC50 [2]: > 10 µM

Structure (SMILES): CCN(CC)CCCNc1cc2nc(/C=C/c3ccc(C(C)C)cc3)n(CCOC(C)=O)c(=O)c2cc1F
- IC50 [1]: > 32 µM
- IC50 [2]: > 10 µM

Structure (SMILES): CCCCCn1c(/C=C/c2ccc(C(C)C)cc2)nc2cc(NCCCN(CC)CC)c(F)cc2c1=O
- IC50 [1]: 3.7 µM
- Activity [3]: inactive

Structure (SMILES): CCN(CC)CCCNc1cc2nc(/C=C/c3ccc(C(C)C)cc3)n(Cc3ccccc3F)c(=O)c2cc1F
- IC50 [1]: 5.2 µM
- Activity [3]: inactive

Structure (SMILES): CCN(CC)CCCNc1cc2nc(/C=C/c3ccc(C(C)C)cc3)n(CC#N)c(=O)c2cc1F
- IC50 [1]: 4.3 µM
- Activity [3]: inactive

Structure (SMILES): CCN(CC)CCCNc1cc2nc(/C=C/c3ccc(C(C)C)cc3)n(CCCN(CC)CC)c(=O)c2cc1F
- IC50 [1]: > 32 µM
- Activity [3]: inactive

Structure (SMILES): CCN(CC)CCCNc1cc2nc(/C=C/c3ccc(C(C)C)cc3)n(Cc3ccc(Br)cc3)c(=O)c2cc1F
- Activity (SW480 [4]): 58%
- inhibition [5]: Active
- IC50 [1]: 0.8 µM
- IC50 (SW480 [6]): 0.6 µM
- IC50 (RKO [7]): 5.4 µM
- Activity (RKO [8]): 25%
- Activity (SW480 [9]): 68%
- Activity (HCT-116 [10]): 35%
- IC50 (HCT-116 [11]): 2.8 µM
- Activity (SW480 [12]): 19%
- IC50 (RKO [13]): 0.7 µM
- Activity (SW480 [14]): Active
- IC50 [15]: 2.3 µM
- Activity (HCT-116 [16]): 20%
- Activity (HCT-116 [17]): Active
- Activity (SW480 [18]): Active
- IC50 (HCT-116 [19]): 1 µM
- IC50 (SW480 [20]): 2.2 µM
- Activity (HCT-116 [21]): Active
- IC50 [22]: > 32 µM
- Activity (RKO [23]): Active
- IC50 (HCT-116 [24]): 1.9 µM
- Activity (HCT-116 [25]): 54%
- Activity [3]: inactive
- inhibition [26]: Active
- Activity (RKO [27]): Active
- IC50 (HCT-116 [28]): 0.6 µM
- IC50 at 48 h [29]: 15.6 µM

Structure (SMILES): CCN(CC)CCCNc1cc2nc(/C=C/c3ccc(C(C)C)cc3)n(Cc3ccccc3)c(=O)c2cc1F
- IC50 [1]: 5.8 µM
- IC50 [2]: > 10 µM

Structure (SMILES): CCN(CC)CCCNc1cc2nc(/C=C/c3ccc(C(C)C)cc3)n(CCC#N)c(=O)c2cc1F
- IC50 [1]: > 32 µM
- IC50 [2]: > 10 µM

Structure (SMILES): CCN(CC)CCCNc1cc2nc(/C=C/c3ccc(C(C)C)cc3)n(CC3CCOCC3)c(=O)c2cc1F
- IC50 [1]: > 32 µM
- Activity [3]: inactive

Structure (SMILES): CCN(CC)CCCNc1cc2nc(/C=C/c3ccc(C(C)C)cc3)n(Cc3cccc(Br)c3)c(=O)c2cc1F
- IC50 [1]: 2.3 µM
- IC50 (RKO [7]): 5.7 µM
- IC50 (HCT-116 [11]): 2.9 µM
- IC50 [15]: 9.9 µM
- IC50 (SW480 [20]): 1.9 µM
- IC50 [22]: > 32 µM
- Activity [3]: inactive
- IC50 at 48 h [29]: 15.3 µM

Structure (SMILES): C=C(C)Cn1c(/C=C/c2ccc(C(C)C)cc2)nc2cc(NCCCN(CC)CC)c(F)cc2c1=O
- IC50 [1]: 8 µM
- Activity [3]: inactive

Structure (SMILES): CCN(CC)CCCNc1cc2nc(/C=C/c3ccc(C(C)C)cc3)n(Cc3ccc(OC)cc3)c(=O)c2cc1F
- IC50 [1]: 5 µM
- Activity [3]: inactive

Structure (SMILES): CCN(CC)CCCNc1cc2nc(/C=C/c3ccc(C(C)C)cc3)n(Cc3ccccc3Br)c(=O)c2cc1F
- IC50 [1]: 2.9 µM
- Activity [3]: inactive

Structure (SMILES): CCN(CC)CCCNc1cc2nc(/C=C/c3ccc(C(C)C)cc3)n(CCCl)c(=O)c2cc1F
- IC50 [1]: 5.1 µM
- IC50 (RKO [7]): 5.6 µM
- IC50 (HCT-116 [11]): 5.6 µM
- IC50 [15]: 7.3 µM
- IC50 (SW480 [20]): 4.5 µM
- IC50 [22]: > 32 µM
- IC50 at 48 h [29]: 15 µM
- IC50 [2]: > 10 µM

Structure (SMILES): CCN(CC)CCCNc1cc2nc(/C=C/c3ccc(C(C)C)cc3)n(Cc3ccccc3Cl)c(=O)c2cc1F
- IC50 [1]: 9.7 µM
- Activity [3]: inactive

Structure (SMILES): CCN(CC)CCCNc1cc2nc(/C=C/c3ccc(C(C)C)cc3)n(Cc3ccccc3C(F)(F)F)c(=O)c2cc1F
- IC50 [1]: 5.3 µM
- Activity [3]: inactive

Structure (SMILES): CCN(CC)CCCNc1cc2nc(/C=C/c3ccc(C(C)C)cc3)n(CC3CC3)c(=O)c2cc1F
- IC50 [1]: 8.3 µM
- Activity [3]: inactive

Structure (SMILES): CCN(CC)CCCNc1cc2nc(/C=C/c3ccc(C(C)C)cc3)n(CCCOC(C)C)c(=O)c2cc1F
- IC50 [1]: 5.2 µM
- IC50 [2]: > 10 µM

Structure (SMILES): CCCCn1c(/C=C/c2ccc(C(C)C)cc2)nc2cc(NCCCN(CC)CC)c(F)cc2c1=O
- IC50 [1]: 4.8 µM
- Activity [3]: inactive

Structure (SMILES): CCN(CC)CCCNc1cc2nc(/C=C/c3ccc(C(C)C)cc3)n(CCCO)c(=O)c2cc1F
- IC50 [1]: 32 µM
- Activity [3]: inactive

Structure (SMILES): CCN(CC)CCCNc1cc2nc(/C=C/c3ccc(C(C)C)cc3)n(CCN(C)C)c(=O)c2cc1F
- IC50 [1]: 2.5 µM
- IC50 (RKO [7]): 10.6 µM
- IC50 (HCT-116 [11]): 3 µM
- IC50 [15]: 4.5 µM
- IC50 (SW480 [20]): 10.1 µM
- IC50 [22]: > 32 µM
- IC50 at 48 h [29]: > 25 µM
- IC50 [2]: > 10 µM

Structure (SMILES): CCN(CC)CCCNc1cc2nc(/C=C/c3ccc(C(C)C)cc3)n(CCCCl)c(=O)c2cc1F
- IC50 [1]: 1.3 µM
- IC50 (RKO [7]): 12.3 µM
- IC50 (HCT-116 [11]): 5.3 µM
- IC50 [15]: 4.9 µM
- IC50 (SW480 [20]): 3.45 µM
- IC50 [22]: > 32 µM
- Activity [3]: inactive
- IC50 at 48 h [29]: 9.6 µM

Structure (SMILES): CCN(CC)CCCNc1cc2nc(/C=C/c3ccc(C(C)C)cc3)n(CCCN3CCOCC3)c(=O)c2cc1F
- IC50 [1]: > 32 µM
- IC50 [2]: > 10 µM
